# Reference: patent US20250277012A1 (Protagonist Therapeutics, Inc., priority 2021, published 2025)
# Positions of bridges follow the written chain, without caps; N, C: chain ends. Non-standard residues stand in square brackets, D forms with d. Residues, ends and D or L forms follow the SMILES beside them. Groups on a side chain read outwards from the residue. *: point of attachment. X1 = C[N+](C)(CCNC(=O)CCCCCCCCCCCCCCCCC(=O)O)CC(=O)*; X5 = CCCCCCCCCCCCCCCC(=O)NCC[N+](C)(C)CC(=O)*; C18 diacid = O=C(O)CCCCCCCCCCCCCCCCC(=O)*; Dip = N[C@H](C(=O)O)C(c1ccccc1)c1ccccc1; Pro(3S-OH) = O=C(O)[C@H]1NCC[C@@H]1O; Palmitoyl = CCCCCCCCCCCCCCCC(=O)*; NMeT = CN[C@H](C(=O)O)[C@@H](C)O; NMeE = CN[C@@H](CCC(=O)O)C(=O)O; NMeQ = CN[C@@H](CCC(N)=O)C(=O)O; β3hF = N[C@H](CC(=O)O)Cc1ccccc1; NMeK = CN[C@@H](CCCCN)C(=O)O; Isovaleryl = CC(C)CC(=O)*; dDap = NC[C@@H](N)C(=O)O; Dap = NC[C@H](N)C(=O)O; AEEA = NCCOCCOCC(=O)O; Ahx = NCCCCCC(=O)O
# Molecular target: T1, ferroportin (Homo sapiens, UniProt Q9NP59)
# T1 sequence (Q9NP59 1-571): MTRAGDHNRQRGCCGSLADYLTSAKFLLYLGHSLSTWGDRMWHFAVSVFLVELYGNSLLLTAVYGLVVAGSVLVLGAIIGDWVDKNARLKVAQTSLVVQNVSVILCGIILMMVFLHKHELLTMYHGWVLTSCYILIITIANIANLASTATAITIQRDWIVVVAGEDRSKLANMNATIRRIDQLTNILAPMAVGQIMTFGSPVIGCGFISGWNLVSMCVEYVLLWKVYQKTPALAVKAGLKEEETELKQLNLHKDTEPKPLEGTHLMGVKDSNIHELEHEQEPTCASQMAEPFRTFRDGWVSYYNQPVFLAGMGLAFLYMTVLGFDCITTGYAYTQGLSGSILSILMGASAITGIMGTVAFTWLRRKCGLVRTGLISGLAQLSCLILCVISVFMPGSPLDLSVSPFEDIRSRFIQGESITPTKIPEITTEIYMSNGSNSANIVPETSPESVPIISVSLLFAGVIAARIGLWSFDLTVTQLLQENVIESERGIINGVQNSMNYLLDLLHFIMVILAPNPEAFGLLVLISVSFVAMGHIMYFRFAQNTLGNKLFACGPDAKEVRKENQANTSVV
# Assay: T47D cell-based ferroportin internalization assay in presence of mouse serum albumin (MSA)
# Set-up: a human breast carcinoma adherent cell line which endogenously expresses ferroportin; host or cells: T47D
# Conditions: T47D internalization assay in presence of mouse serum albumin (MSA); Table 6E
# Procedure: The potency of the peptides in causing ferroportin internalization was evaluated in a T47D cell-based assay. […] In this internalization assay, the potency of the test peptides was evaluated in presence of serum albumin which is the main protein component in the blood. T47D cells were maintained in RPMI media (containing required amount of fetal bovine serum) and regularly sub-cultured. In preparation for the assay, the cells were seeded in 96-well plates at a density of 80-100 k cells per well in 100 ul volume and allowed to rest overnight. […] Sigma, A3139). The test peptide dilution series were allowed to incubate at room temperature for 30 min. Then the media was aspirated from the 96-well cell plate and test peptide dilution series were added. […] The AF647-conjugated detection peptide was previously verified to bind to ferroportin and cause its internalization. The cells were washed again after a 2 hr incubation in preparation for flow cytometry analysis. The Median Fluorescence Intensity (MFI) of the AF647-positive population was measured (after removing dead cells and non-singlets from the analysis). The MFI values were used to generate a dose-response curve and obtain IC50 potencies for the test peptides.
row,SMILES,IC50 [nM]
1,CC(C)CC(=O)N[C@@H](CCC(=O)O)C(=O)N[C@H](C(=O)N[C@@H](Cc1c[nH]cn1)C(=O)N[C@H](C(=O)N1CCC[C@H]1C(=O)N[C@H]1CSSC[C@@H](C(=O)N(C)[C@@H](CCCCNC(=O)COCCOCCNC(=O)COCCOCCNC(=O)[C@H](CN)NC(=O)CCCCCCCCCCCCCCCCC(=O)O)C(=O)N[C@H](CC(=O)N[C@H](CCCCN)C(=O)N(C)[C@@H](CCC(N)=O)C(N)=O)Cc2ccccc2)NC1=O)C(c1ccccc1)c1ccccc1)[C@@H](C)O [compound 251] (Isovaleryl-ETH[Dip]PCC[NMeK]([AEEA-AEEA-Dap-C18 diacid])[β3hF][dK][NMeQ]-NH2; disulfide 6-7),10 to 100
2,CC(C)CC(=O)N[C@@H](CN)C(=O)N[C@H](C(=O)N[C@@H](Cc1c[nH]cn1)C(=O)N[C@H](C(=O)N1CCC[C@H]1C(=O)N[C@H]1CSSC[C@@H](C(=O)N(C)[C@@H](CCCCNC(=O)COCCOCCNC(=O)COCCOCCNC(=O)[C@H](CN)NC(=O)CCCCCCCCCCCCCCCCC(=O)O)C(=O)N[C@H](CC(=O)N[C@H](CCCCN)C(N)=O)Cc2ccccc2)NC1=O)C(c1ccccc1)c1ccccc1)[C@@H](C)O [compound 289] (Isovaleryl-[Dap]TH[Dip]PCC[NMeK]([AEEA-AEEA-Dap-C18 diacid])[β3hF][dK]-NH2; disulfide 6-7),100 to 500

# Same assay, conditions: Table 6E; T47D internalization assay with MSA
row,SMILES,IC50 [nM]
1,CCCCCCCCCCCCCCCC(=O)NCC[N+](C)(C)CC(=O)NCCCCCC(=O)NCCCC[C@@H](C(=O)N[C@H](C(=O)N[C@H](CCCCN)C(N)=O)C(c1ccccc1)c1ccccc1)N(C)C(=O)[C@@H]1CSSC[C@H](NC(=O)[C@@H]2CCCN2C(=O)[C@@H](NC(=O)[C@H](Cc2cnc[nH]2)NC(=O)[C@H]([C@@H](C)O)N(C)C(=O)[C@H](CCC(=O)O)NC(=O)CC(C)C)C(c2ccccc2)c2ccccc2)C(=O)N1 [compound 170] (Isovaleryl-E[NMeT]H[Dip]PCC[NMeK]([Ahx-X5])[Dip][dK]-NH2; disulfide 6-7),1 to 10
2,CCCCCCCCCCCCCCCC(=O)NCCCCCC(=O)NCCCC[C@@H](C(=O)N[C@H](C(=O)N[C@H](CCCCN)C(N)=O)C(c1ccccc1)c1ccccc1)N(C)C(=O)[C@@H]1CSSC[C@H](NC(=O)[C@@H]2CCCN2C(=O)[C@@H](NC(=O)[C@H](Cc2cnc[nH]2)NC(=O)[C@@H](NC(=O)[C@H](CCC(=O)O)N(C)C(=O)CC(C)C)[C@@H](C)O)C(c2ccccc2)c2ccccc2)C(=O)N1 [compound 166] (Isovaleryl-[NMeE]TH[Dip]PCC[NMeK]([Ahx-Palmitoyl])[Dip][dK]-NH2; disulfide 6-7),1 to 10
3,CCCCCCCCCCCCCCCC(=O)NCCCCCC(=O)NCCCC[C@@H](C(=O)N[C@H](C(=O)N[C@H](CN)C(N)=O)C(c1ccccc1)c1ccccc1)N(C)C(=O)[C@@H]1CSSC[C@H](NC(=O)[C@@H]2CCCN2C(=O)[C@@H](NC(=O)[C@H](Cc2cnc[nH]2)NC(=O)[C@@H](NC(=O)[C@H](CCC(=O)O)NC(=O)CC(C)C)[C@@H](C)O)C(c2ccccc2)c2ccccc2)C(=O)N1 [compound 165] (Isovaleryl-ETH[Dip]PCC[NMeK]([Ahx-Palmitoyl])[Dip][dDap]-NH2; disulfide 6-7),1 to 10
4,CC(C)CC(=O)N[C@@H](CCC(=O)O)C(=O)N1CC[C@H](O)[C@H]1C(=O)N[C@@H](Cc1c[nH]cn1)C(=O)N[C@H](C(=O)N1CCC[C@H]1C(=O)N[C@H]1CSSC[C@@H](C(=O)N(C)[C@@H](CCCCNC(=O)CCCCCNC(=O)C[N+](C)(C)CCNC(=O)CCCCCCCCCCCCCCCCC(=O)O)C(=O)N[C@H](C(=O)N[C@H](CCCCN)C(N)=O)C(c2ccccc2)c2ccccc2)NC1=O)C(c1ccccc1)c1ccccc1 [compound 192] (Isovaleryl-E[Pro(3S-OH)]H[Dip]PCC[NMeK]([Ahx-X1])[Dip][dK]-NH2; disulfide 6-7),10 to 100
